This passage reports IC50 results from patent publication US11919908B2, “Substituted pyrrolo[2,3-d]pyrimidine compounds as JAK2 V617F inhibitors” (Incyte Corporation, priority 2020, dated 2024).

Experiment [1] deals with T1, catalytic domain (JH1) of human JAK2 (Homo sapiens, UniProt O60674).
T1 construct: catalytic domain (JH1, amino acids 826-1132) of human JAK2; FLAG (N); purchased Carna Biosciences 08-445-20N; host or cells: baculovirus expression system
As to the kind of experiment: JAK2 LanthaScreen JH1 Binding Assay. Conditions: 50 nM Fluorescent JAK2-JH1 Tracer, 2 hours at 25° C. As for the experimental part: Example A. JAK2 LanthaScreen […] Binding Assay JAK2 JH1 binding assay utilizes catalytic domain (JH1, amino acids 826-1132) of human JAK2 expressed as N-terminal FLAG-tagged, biotinylated protein in a baculovirus expression system (Carna Biosciences, Product #08-445-20N). The assay was conducted in black 384-well polystyrene plates in a final reaction volume of 20 μL. JAK2 JH1 (1.5 nM) was incubated with compounds (100 nL serially diluted in DMSO) in the presence of 50 nM Fluorescent JAK2-JH1 Tracer and 0.5 nM Streptavidin-Tb cryptate (Cisbio Part #610SATLB) in assay buffer (50 mM Tris, pH=7.5, 10 mM MgCl2, 0.01% Brij-35, 0.1% BSA, 1 mM EGTA, 5% Glycerol and 5 mM DTT). Non-specific binding was accessed in the presence of 2 mM ATP. After incubation for 2 hours at 25° C., LanthaScreen signals were read on a PHERAstar FS plate reader (BMG LABTECH). Data was analyzed with IDBS XLfit and GraphPad Prism 5.0 software using a four parameter dose response curve to determine IC50 for each compound.
Background: In TR-FRET formats the signal depends on donor and acceptor labels being close together.

Experiment [2] addresses T2, pseudo-kinase domain (JH2) of human V617F mutant JAK2 (Homo sapiens, UniProt O60674, F794H/V617F/W659A/W777A).
T2 construct: pseudo-kinase domain (JH2, amino-acids 536-812 with 3 surface mutations W659A, W777A, F794H); His (C); purchased BPS Bioscience 79498; host or cells: baculovirus expression system
Nature of the experiment: JAK2 LanthaScreen JH2-V617F Binding Assay. Conditions: 50 nM Fluorescent JAK2-JH2 Tracer, 1 hour at 25° C. The procedure:
(§1) Example C. JAK2 LanthaScreen JH2-V617F Binding Assay JAK2 JH2-V617F binding assay utilizes pseudo-kinase domain (JH2, amino-acids 536-812 with 3 surface mutations […]) of human V617F mutant JAK2 expressed as C-terminal His-Avi-tagged, biotinylated protein in a baculovirus expression system (BPS Bioscience, Catalog #79498). The assay was conducted in black 384-well polystyrene plates in a final reaction volume of 20 μL. JAK2 JH2-V617F (0.26 nM) was incubated with compounds (100 nL serially diluted in DMSO) in the presence of 50 nM Fluorescent JAK2-JH2 Tracer (MedChem Express Catalog #HY-102055) and 0.25 nM Streptavidin-Tb cryptate (Cisbio Part #610SATLB) in assay buffer (50 mM Tris, pH=7.5, 10 mM MgCl2, 0.01% Brij-35, 0.1% BSA, 1 mM EGTA, 5% Glycerol and 5 mM DTT). Non-specific binding was accessed in the presence of 2 mM ATP. After incubation for 1 hour at 25° C., LanthaScreen signals were read on a PHERAstar FS plate reader (BMG LABTECH). Data was analyzed with IDBS XLfit and GraphPad Prism 5.0 software using a four parameter dose response curve to determine IC50 for each compound.

For experiment [3], the target named is T3, pseudo-kinase domain (JH2) of human Wild Type JAK2 (Homo sapiens, UniProt O60674, F794H/W659A/W777A).
T3 construct: pseudo-kinase domain (JH2, amino-acids 536-812 with 3 surface mutations W659A, W777A, F794H); His (C); purchased BPS Bioscience 79463; host or cells: baculovirus expression system
Nature of the experiment: JAK2 LanthaScreen JH2-WT Binding Assay. As to conditions: 50 nM Fluorescent JAK2-JH2 Tracer, 1 hour at 25° C. The procedure: as §1, with “Example B.” for “Example C.”, “LanthaScreen JH2-WT” for “LanthaScreen JH2-V617F”, “JAK2 JH2-WT” for “JAK2 JH2-V617F”, “human Wild Type” for “human V617F mutant”, “Catalog #79463).” for “Catalog #79498).”, “JAK2 JH2-WT (0.145” for “JAK2 JH2-V617F (0.26”

T1 sequence (O60674 826-1132): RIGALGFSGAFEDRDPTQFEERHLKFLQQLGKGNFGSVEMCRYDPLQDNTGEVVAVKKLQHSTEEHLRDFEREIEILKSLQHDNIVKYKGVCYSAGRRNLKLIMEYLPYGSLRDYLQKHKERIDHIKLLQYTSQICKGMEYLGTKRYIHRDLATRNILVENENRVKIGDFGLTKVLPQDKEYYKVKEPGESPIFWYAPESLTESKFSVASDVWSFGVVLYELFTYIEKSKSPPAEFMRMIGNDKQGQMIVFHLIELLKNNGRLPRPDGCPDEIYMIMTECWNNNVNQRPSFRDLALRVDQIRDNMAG
T3 sequence (O60674 536-812 W659A/W777A/F794H): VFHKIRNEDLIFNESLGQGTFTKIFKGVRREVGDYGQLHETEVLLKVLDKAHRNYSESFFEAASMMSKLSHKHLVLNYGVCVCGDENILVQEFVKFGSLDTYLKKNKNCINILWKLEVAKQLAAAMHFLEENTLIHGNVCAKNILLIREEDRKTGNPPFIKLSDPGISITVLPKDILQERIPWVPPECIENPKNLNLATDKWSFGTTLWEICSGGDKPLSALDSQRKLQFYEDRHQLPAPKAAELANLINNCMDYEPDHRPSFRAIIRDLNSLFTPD
T2 sequence (O60674 536-812 V617F/W659A/W777A/F794H): as the sequence (O60674 536-812 W659A/W777A/F794H) above, with V82F counted along it

Broadly, the IC50 is the concentration at which inhibition is half-maximal. A high value points to lower potency. Turning to `CN(C)S(=O)(=O)c1ccc(-c2[nH]c3nc(N)[nH]c(=O)c3c2-c2ccccc2OC(F)F)cc1` [Example 19, 4-(2-Amino-5-(2-(difluoromethoxy)phenyl)-4-oxo-4,7-dihydro-3H-pyrrolo[2,3-d]pyrimidin-6-yl)-N,N-dimethylbenzene sulfonamide], the concentration for half-maximal inhibition (IC50) was over 2500 nM in experiment [1], 1000 to 2500 nM in experiment [2] and over 2500 nM in experiment [3].

As to `Nc1nc2[nH]c(-c3ccccc3)c(-c3ccccc3C(F)(F)F)c2c(=O)[nH]1` [Example 59, 2-Amino-6-phenyl-5-(2-(trifluoro-methyl)phenyl)-3,7-dihydro-4H-pyrrolo[2,3-d] pyrimidin-4-one], the 50% inhibitory concentration (IC50) in experiment [1], in experiment [2] and in experiment [3] was over 2500 nM each time.

As for `CNC(=O)c1ccc(-c2c(-c3ccc(S(=O)(=O)N(C)C)cc3)[nH]c3nc(N)[nH]c(=O)c23)cc1` [Example 11, 4-(2-Amino-6-(4-(N,N-dimethyl-sulfamoyl)phenyl)-4-oxo-4,7-dihydro-3H-pyrrolo[2,3-d]pyrimidin-5-yl)-N-methylbenzamide], the results for the IC50 in experiment [1], in experiment [2] and in experiment [3] were 1000 to 2500 nM, 100 to 500 nM and 100 to 500 nM, respectively.

Consider `CN1CCOc2cc(-c3c(-c4ccc(S(=O)(=O)N(C)C)cc4)[nH]c4nc(N)[nH]c(=O)c34)ccc21` [Example 22, 4-(2-Amino-5-(4-methyl-3,4-dihydro-2H-benzo[b] [1,4]oxazin-7-yl)-4-oxo-4,7-dihydro-3H-pyrrolo [2,3-d]pyrimidin-6-yl)-N,N-dimethylbenzene sulfonamide], for which the values for the IC50 in experiment [1], in experiment [2] and in experiment [3] were 1000 to 2500 nM, 500 to 1000 nM and 500 to 1000 nM, respectively.

Take “4-(2-Amino-5- (2,3-difluorobenzofuran-6- yl)-4-oxo-4,7-dihydro-3H- pyrrolo[2,3-d]pyrimidin-6- yl)-N,N-dimethylbenzene sulfonamide [Example 26]”: the 50% inhibitory concentration (IC50) fell in the range of 1000 to 2500 nM in experiment [1], 500 to 1000 nM in experiment [2] and 500 to 1000 nM in experiment [3].

On to `COc1ccc(C(F)(F)F)cc1-c1c(-c2ccc(S(=O)(=O)N(C)C)cc2)[nH]c2nc(N)[nH]c(=O)c12` [Example 24, 4-(2-Amino-5-(2-methoxy-5-(trifluoromethyl)phenyl)-4-oxo-4,7-dihydro-3H-pyrrolo[2,3-d]pyrimidin-6-yl)-N,N-dimethylbenzene sulfonamide], for which the half-maximal inhibitory concentration (IC50) is over 2500 nM in experiment [1], 1000 to 2500 nM in experiment [2] and 1000 to 2500 nM in experiment [3].

Take `CN(C)S(=O)(=O)c1ccc(-c2[nH]c3nc(N)[nH]c(=O)c3c2-c2ccccc2)cc1` [Example 38, 4-(2-Amino-4-oxo-5-phenyl-4,7-dihydro-3H-pyrrolo[2,3-d]pyrimidin-6-yl)-N,N-dimethylbenzene sulfonamide]: the figures for the half-maximal inhibitory concentration (IC50) in experiment [1], in experiment [2] and in experiment [3] were 500 to 1000 nM, 100 to 500 nM and 100 to 500 nM, respectively.

Turning to `CN(C)S(=O)(=O)c1ccc(-c2[nH]c3nc(N)[nH]c(=O)c3c2-c2cnn(Cc3cccc(C(=O)O)c3)c2)cc1` [Example 51, 3-((4-(2-amino-6-(4-(N,N-dimethylsulfamoyl)phenyl)-4-oxo-4,7-dihydro-3H-pyrrolo[2,3-d]pyrimidin-5-yl)-1H-pyrazol-1-yl)methyl)benzoic acid], the figures for the IC50 in experiment [1], in experiment [2] and in experiment [3] were 1000 to 2500 nM, 500 to 1000 nM and 500 to 1000 nM, respectively.

For the compound `Cc1cccc(-c2c(-c3ccc(S(=O)(=O)N(C)C)cc3)[nH]c3nc(N)[nH]c(=O)c23)c1F` [Example 67, 4-(2-Amino-5-(2-fluoro-3-methylphenyl)-4-oxo-4,7-dihydro-3H-pyrrolo[2,3-d]pyrimidin-6-yl)-N,N-dimethylbenzenesulfonamide], the 50% inhibitory concentration (IC50) in experiment [1], in experiment [2] and in experiment [3] was 100 to 500 nM in each case.

In the case of `CN(C)S(=O)(=O)c1ccc(-c2[nH]c3nc(N)[nH]c(=O)c3c2-c2cnn(Cc3ccc(C(=O)O)cc3)c2)cc1` [Example 52, 4-((4-(2-amino-6-(4-(N,N-dimethylsulfamoyl)phenyl)-4-oxo-4,7-dihydro-3H-pyrrolo[2,3-d]pyrimidin-5-yl)-1H-pyrazol-1-yl)methyl)benzoic acid], the IC50 was over 2500 nM in experiment [1], 100 to 500 nM in experiment [2] and 100 to 500 nM in experiment [3].

In the case of `CN(C)S(=O)(=O)c1ccc(-c2[nH]c3nc(N)[nH]c(=O)c3c2-c2cnn(Cc3ccncc3)c2)cc1` [Example 32, 4-(2-Amino-4-oxo-5-(1-(pyridin-4-ylmethyl)-1H-pyrazol-4-yl)-4,7-dihydro-3H-pyrrolo[2,3-d]pyrimidin-6-yl)-N,N-dimethylbenzene sulfonamide], the IC50 in experiment [1] was over 2500 nM; in experiment [2], 1000 to 2500 nM; in experiment [3] it was 1000 to 2500 nM.

As for `CN(C)S(=O)(=O)c1ccc(-c2[nH]c3nc(N)[nH]c(=O)c3c2-c2ccccc2CC#N)cc1` [Example 15, 4-(2-Amino-5-(2-(cyanomethyl)phenyl)-4-oxo-4,7-dihydro-3H-pyrrolo[2,3-d]pyrimidin-6-yl)-N,N-dimethylbenzene sulfonamide], the IC50 in experiment [1], in experiment [2] and in experiment [3] was over 2500 nM throughout.

As for `COc1ccc(-c2c(-c3ccc(S(=O)(=O)N(C)C)cc3)[nH]c3nc(N)[nH]c(=O)c23)c(OC)c1` [Example 42, 4-(2-Amino-5-(2,4-dimethoxyphenyl)-4-oxo-4,7-dihydro-3H-pyrrolo[2,3-d]pyrimidin-6-yl)-N,N-dimethylbenzene sulfonamide], the IC50 in experiment [1] was over 2500 nM; in experiment [2] it was 500 to 1000 nM; in experiment [3], 500 to 1000 nM.

In the case of `CN(C)S(=O)(=O)c1ccc(-c2[nH]c3nc(N)[nH]c(=O)c3c2-c2cccc(CN)c2)cc1` [Example 45, 4-(2-Amino-5-(3-(aminomethyl)phenyl)-4-oxo-4,7-dihydro-3H-pyrrolo[2,3-d]pyrimidin-6-yl)-N,N-dimethylbenzenesulfonamide], the IC50 in experiment [1] is over 2500 nM; in experiment [2] it was over 2500 nM; in experiment [3], 1000 to 2500 nM.

Regarding `CN(C)S(=O)(=O)c1ccc(-c2[nH]c3nc(N)[nH]c(=O)c3c2-c2ccccc2C#N)cc1` [Example 18, 4-(2-Amino-5-(2-cyano-phenyl)-4-oxo-4,7-dihydro-3H-pyrrolo[2,3-d]pyrimidin-6-yl)-N,N-dimethylbenzene sulfonamide], the 50% inhibitory concentration (IC50) in experiment [1], in experiment [2] and in experiment [3] was over 2500 nM each time.

As to `COc1cccc(F)c1-c1c(-c2ccc(S(=O)(=O)N(C)C)cc2)[nH]c2nc(N)[nH]c(=O)c12` [Example 68, 4-(2-Amino-5-(2-fluoro-6-methoxyphenyl)-4-oxo-4,7-dihydro-3H-pyrrolo[2,3-d]pyrimidin-6-yl)-N,N-dimethylbenzenesulfonamide], the results for the IC50 in experiment [1], in experiment [2] and in experiment [3] were over 2500 nM, 500 to 1000 nM and 500 to 1000 nM, respectively.
